Here are results for nine substances from paper PMC8302598, “Rapid discovery of self-assembling peptides with one-bead one-compound peptide library” (Nature Communications, 2021).

Holding throughout (assay type): physicochemical
Data set [1] can be described thus: Fluorescent-activation screening assay on OBOC beads (NBD). The settings on record: for Bead fluorescence in methanol: NBD N-capped peptide on TentaGel S beads, 20 min; for Fluorescence (beads): peptide N-terminally capped with NBD on TentaGel S beads, in water, fluorescence microscope. The source says:
It is well known that Aβ16–20 peptide sequence KLVFF can self-assemble into nanofibers in water. We, therefore, chose it as a model peptide to test our screening strategy and used KAAGG as the non-assembling negative control. These control peptides, N-terminally capped with NBD were synthesized with standard Fmoc-chemistry, and TentaGel S resin beads as solid support but without any cleavable linker. After side-chain deprotection, the beads were thoroughly washed with DMF, which was replaced stepwise with water or methanol and then examined under a fluorescent microscope. […] This is expected as the hydrophobicity-sensitive fluorescence dye NBD would fluoresce brightly under hydrophobic condition, in this case, methanol. In water, we expect fluorescent signal emitted from non-sequestered NBD to diminish, unless it is buried inside a hydrophobic environment such as within peptide aggregates or β-sheets formed by KLVFF peptides.
(§1) Once the screening method has been validated with our model KLVFF peptide, a totally random pentapeptide library with 19[5] permutations (cysteine was omitted from the library) was constructed using our previously published methods (Supplementary Fig. 3)[23]. Again, TentaGel S resin (loading of 0.31 mmol/g) was used as the solid support. The pentapeptides in the library were N-terminally capped with NBD. […] The positive bead with an intense fluorescent signal (pointed with a solid arrow) was noted. The rest of the beads were considered negative or weak positive beads. From a total of approximately 100 000 beads screened, we selected a total of eight strongest fluorescent positive beads and four dark beads as negative beads. The peptides were then resynthesized in soluble form and purified by high-performance liquid chromatography (HPLC) for testing (Supplementary Figs. 4–12). The amino acid sequences of the eight self-assembling pentapeptides are FTISD, ITSVV, YFTEF, ISDNL, LDFPI, FAGFT, FGFDP, and FFVDF. Not unexpectedly, of the 40 amino acids in these eight pentapeptides, 50% are hydrophobic residues, predominated by Phe (11 Phe, 4 Ile, 3 Val, and 2 Leu). For the remaining 20 amino acids, six are acidic residues (5 Asp and 1 Glu) and seven are neutral and hydrophilic (4 Thr and 3 Ser). The rest are 2 Pro, 2 Gly, 1 Tyr, 1 Asn, and 1 Ala. All eight peptides have at least two hydrophobic residues. Six out of the eight peptides have one negatively charged residue (Asp or Glu). The remaining two peptides are neutral. […] For the Pro containing pentapeptides, LDFPI and FGFDP, the Pro residue, which promotes peptide turns, resides at the fourth and fifth positions, but not in the middle. Not unexpectedly, all the four randomly selected negative non-assembling peptides (RITTR, PLVKA, PFTTR, and QIMRW) have very different sequences, and contain at least one positive charged amino acid.
The OBOC pentapeptide libraries (19[5]) were built using Fmoc strategy SPPS (solid-phase peptide synthesis) (Supplementary Fig. 3). TentaGel S Resin (named N-beads with loading 0.31 mmol/g) was used as the solid phase support. The pentapeptide sequence of X1 X2 X3 X4 X5 was constructed in the library, in which X1−X5 represents either Ala, Asp, Glu, Phe, Gly, His, Ile, Lys, Leu, Met, Asn, Pro, Gln, Arg, Ser, Thr, Val, Trp, and Tyr residues. During the synthesis of OBOC library, solid support beads were mixed and split equally in each cycle, then different amino acids were added, separately, the process was repeated four times. The synthesis of peptides was used anhydrous DMF as solvent. The Fmoc group was removed by 20% (v/v) piperidine in DMF and the deprotection time was 10 min twice. During the coupling step, the HBTU (4 mM) and Fmoc-amino acid (4 mM) were dissolved in DMF containing NMM (0.4 mM). The coupling time was 50 min. Qualitative Fmoc deprotection and coupling were confirmed by ninhydrin test. All the above experiments were carried out in the solid phase peptide synthesis vessels with sieves in it. […]

Assay in data set [2]: as above
The settings on record: peptide beads incubated with free dye in water for 2 hours.

Data set [3] is described as follows: Self-assembly of resynthesized soluble pentapeptides. To be noted: self-assembly under aqueous environment.
Excerpt: as §1
To estimate the propensity of the identified peptides to self-assemble, the critical micelle concentrations (CMC) of the eight positive peptides and four negative peptides were determined, and the results are shown in Table 1 and Supplementary Figs. 13, 14. The CMC of all the eight positive peptides were detectable and found to range between 8.4 and 14.8 μM, indicating the propensity for these peptides to self-assemble under aqueous environment. […] Hydrophobicity of peptides can be predicted by the value of GRAVY[28] with more negative value for more hydrophilic peptides. Of the four negative assembling peptides, two have a negative GRAVY value. […] Experimental testing, such as the screening strategy described in this work, is needed. This is because multiple factors, including hydrophobicity, hydrogen-bonding, electrostatic interactions, and positions of each residue within the peptides, all contribute to the assembling and final morphology of the self-assembled nano-structure. […]

Data set [4] can be described thus: Appearance and TEM of 30 mM peptide in water. On the procedure:
To further characterize these self-assembling peptides, we selected two positive peptides (FFVDF and YFTEF) and a negative control peptide (PFTTR) for the following studies: Fourier transform infrared (FT-IR) spectroscopy, UV−Vis spectra, and transmission electron microscopy (TEM).
(§2) Pentapeptides monomers were dissolved in DMSO at a concentration of 5.0 mM, followed by quick injection into water at a volume ratio of 1:99 for DMSO and H2O to obtain the nanomaterials solution (50 μM). For 30 mM pentapeptide solution, the pentapeptide was dissolved in water and sonicated for 3 min.
(§3) The pentapeptide solution with the concentration of 20 μM (10 μL) was placed dropwise onto a copper mesh for 5 min, then most of the liquid was removed through a filter paper. Ten microliters of uranyl acetate solution were employed to stain the samples for 5 min, followed by drying the spare liquid with the filter. Finally, the copper mesh was washed with 10 μL of deionized water, which was blotted after staining and drying at room temperature. All of the samples were observed by TEM (Tecnai G2 20 S-TWIN) at an accelerating voltage of 200 kV.

A short description of data set [5]: Turbidity test (transmittance spectra). To be noted: 20 μM peptide in water. On the procedure: To further confirm the peptide assembling in water, the solutions of pentapeptide were diluted to 20 μM for turbidity test.
Data set [6] is described as follows: TEM morphology and size of peptide nano-assemblies over time. To be noted: same peptide preparation in water with 1% DMSO.
Excerpt: Self-assembling peptides with good biocompatibility may be used to construct nanocarriers for drug delivery. We recently reported the use of FFVLK, the reverse sequence of KLVFF, as a self-aggregating β-sheet forming domain for the delivery of HER2 targeting peptides for successful treatment of breast cancer in xenograft models. Such FFVLK containing peptide is able to self-assemble into nanoparticles. Upon intravenous administration, the FFVLK-nanoparticle was able to transform into nanofibrillar network when encountering HER2 at the tumor sites. To investigate the morphology of the nano-assembly formed by the eight self-assembling peptides, we dissolved each of these peptides in DMSO (5 mM) and then diluted them 100X with water at a final peptide concentration of 50 μM to induce spontaneous self-assembly. Each sample was fixed immediately after peptide solution preparation and at 4 h time point for subsequent TEM processing and analysis. As clearly shown in Fig. 4a, all eight self-assembling peptides initially formed some nanostructures: nanoparticles for ITSVV, YFTEF, ISDNL, LDFPI, FAGFT, FGFDP, and FTISD; nanofibers for FFVDF. […] LDFPI (8 nm) maintained the particulate morphology without changing of diameter in 4 h. FFVDF formed nanofibers at 0 and 4 h. […] Time-dependent size variations of pentapeptides in water were further confirmed by DLS spectra (Supplementary Fig. 18). The initial diameters of nanoparticles formed by seven pentapeptides were larger than that observed by TEM, probably due to hydration radius. The size of the nanostructure increased over time, correlating well with the morphologic transformation. […] Circular dichroism (CD) was used to monitor the secondary structures of the nano-assembly of the eight self-assembling peptides over time (Supplementary Fig. 20).
as §2, §3

“Also recorded” adds a separate entry of the source.

With “(NBD)-KAAGG-beads [non-assembling negative control KAAGG N-terminally capped with NBD on TentaGel S resin beads, reference compound]”, in data set [1], the “Bead fluorescence in methanol” value is listed as “bright fluorescence” and the “Fluorescence (beads)” value was “did not”.
With “(NBD)-KLVFF-beads [positive control: Aβ16–20 peptide KLVFF N-terminally capped with NBD on TentaGel S resin beads, reference compound]”, in data set [1], the “Bead fluorescence in methanol” value is “bright fluorescence” and the “Fluorescence (beads)” value was “fluoresced brightly; also recorded: fluorescence-on”.
Regarding “(NBD)-LIVGD-beads [additional positive control LIVGD N-capped with NBD on beads, reference compound]”, the “Fluorescence (beads)” value in data set [1] is reported as “fluorescence-on”.
Still for that read-out and setting: with “(NBD)-NFGAIL-beads [additional positive control NFGAIL N-capped with NBD on beads, reference compound]” the entry was “fluorescence-on”.
In the case of “KAAGG-beads [negative control peptide KAAGG on beads, probed with free reporter dye]”, the “Bead fluorescence with free dye (ThT, Nile Red or NBD)” value in data set [2] is “fluorescent off”.
With “PFTTR [randomly selected negative non-assembling pentapeptide]”, the Assembly entry in data set [3] is “No”. Besides, the “Nanostructure under TEM” value in data set [4] (30 mM in H2O) was “no nanostructures observed”. Moreover, in data set [4] (30 mM in water, sonicated 3 min), the “Appearance of peptide in water” value was “completely clear solution”. Moreover, in data set [1], the “Fluorescence (beads)” value is “Off”. In addition, the “Transmittance at 400 nm” value in data set [5] is recorded as 100%. Besides, the “Nanostructures detected by TEM (negative controls)” value (shortened to “Nanostructures detected by TEM”) in data set [6] is reported as “no nanostructures were detected”.
On to “PLVKA [randomly selected negative non-assembling pentapeptide]”, for which the Assembly entry in data set [3] is “No”. Moreover, the “Fluorescence (beads)” value in data set [1] is recorded as “Off”. In addition, the “Nanostructures detected by TEM” value in data set [6] is “no nanostructures were detected”.
The corresponding values for “QIMRW [randomly selected negative non-assembling pentapeptide]” are “No”, “Off” and “no nanostructures were detected”.
Regarding “RITWI [randomly selected negative non-assembling pentapeptide]”, in data set [3], the Assembly result is on record as “No”. Further, the “Fluorescence (beads)” value in data set [1] is given as “Off”. For the same substance, the “Nanostructures detected by TEM” value in data set [6] is given as “no nanostructures were detected”.
